Assay results from BindingDB's records for doi:10.1016/j.ejmech.2021.113681 (Moscow State University, 2021).

assay: Inhibition of gp120 in HIV-1 subtype B #11578 harboring pseudotyped Env pWEAUd15.410.5017 infected in human TZM-bl cells assessed as reduction in viral infection pretreated for 30 mins before viral infection and measured after 3 days by luciferase based single cycle infection assay

SMILES	IC50 [µM]
Cc1nc([C@@H](CN)NC(=O)C(=O)Nc2ccc(Cl)cc2)sc1CO	> 27
Cc1nc([C@H](CN)NC(=O)C(=O)Nc2ccc(Cl)cc2)sc1CO	> 27
Cc1nc([C@@H](CCN)NC(=O)C(=O)Nc2ccc(Cl)cc2)sc1CO	> 15
Cc1nc([C@H](CCN)NC(=O)C(=O)Nc2ccc(Cl)cc2)sc1CO	> 15
NC[C@@H](NC(=O)C(=O)NCc1ccc(Cl)c(F)c1)c1ncc(CO)s1	> 15
NC[C@H](NC(=O)C(=O)NCc1ccc(Cl)c(F)c1)c1ncc(CO)s1	> 15
NC[C@@H](NC(=O)CNCc1ccc(Cl)cc1)c1ncc(CO)s1	> 23.4
NC[C@H](NC(=O)CNCc1ccc(Cl)cc1)c1ncc(CO)s1	> 23.4
NC[C@@H](NC(=O)c1ccc(-c2ccc(Cl)cc2)[nH]1)c1nccs1	3.3
NC[C@H](NC(=O)c1ccc(-c2ccc(Cl)cc2)[nH]1)c1nccs1	0.8
NCCNC(=O)c1ccc(-c2ccc(Cl)c(F)c2)[nH]1	3.8
O=C(NC1CCNCC1)c1ccc(-c2ccc(Cl)c(F)c2)[nH]1	6.6
CC1(C)CC(NC(=O)c2ccc(-c3ccc(Cl)c(F)c3)[nH]2)CC(C)(C)N1	6.2
O=C(NC1(c2nc(CO)cs2)CCNCC1)c1ccc(-c2ccc(C(F)(F)F)cc2)[nH]1	11.4
O=C(N[C@H](CC1CCNCC1)c1nc(CO)cs1)c1ccc(-c2ccc(C(F)(F)F)cc2)[nH]1	12.4
O=C(N[C@@H](CC1CCNCC1)c1nc(CO)cs1)c1ccc(-c2ccc(C(F)(F)F)cc2)[nH]1	8.5
Cc1nc([C@@H](CN)NC(=O)NC(=O)c2ccc(Cl)cc2)sc1CO	> 54
Cc1nc([C@H](CN)NC(=O)NC(=O)c2ccc(Cl)cc2)sc1CO	> 54
NC[C@@H](NC(=O)c1ccc(C2CCCCC2)[nH]1)c1ncc(CO)s1	> 28
NC[C@H](NC(=O)c1ccc(C2CCCCC2)[nH]1)c1ncc(CO)s1	> 28
NC[C@@H](NC(=O)c1ccc(OCC2CCCCC2)cc1)c1ncc(CO)s1	> 15
NC[C@H](NC(=O)c1ccc(OCC2CCCCC2)cc1)c1ncc(CO)s1	> 15
NC[C@@H](NC(=O)c1ccc(NCC2CCCCC2)cc1)c1ncc(CO)s1	> 15
NC[C@H](NC(=O)c1ccc(NCC2CCCCC2)cc1)c1ncc(CO)s1	> 15
NC[C@@H](NC(=O)Cc1ccc(OCC2CCCCC2)cc1)c1ncc(CO)s1	> 25
NC[C@H](NC(=O)Cc1ccc(OCC2CCCCC2)cc1)c1ncc(CO)s1	> 25
Cc1nc([C@@H](CN)NC(=O)c2cc3ccccc3[nH]2)sc1CO	> 60
Cc1nc([C@H](CN)NC(=O)c2cc3ccccc3[nH]2)sc1CO	> 60
Cc1nc([C@@H](CN)NC(=O)c2cc3cc(Cl)ccc3[nH]2)sc1CO	> 40
Cc1nc([C@H](CN)NC(=O)c2cc3cc(Cl)ccc3[nH]2)sc1CO	> 40
